BigSolDB 2.1

Structure (SMILES): CC(=O)c1cccc([N+](=O)[O-])c1
- solubility (mole fraction) (in acetone, 278.15 K): 0.1
- solubility (mole fraction) (in acetone, 283.15 K): 0.121
- solubility (mole fraction) (in acetone, 288.15 K): 0.146
- solubility (mole fraction) (in acetone, 293.15 K): 0.179
- solubility (mole fraction) (in acetone, 298.15 K): 0.218
- solubility (mole fraction) (in acetone, 303.15 K): 0.264
- solubility (mole fraction) (in acetone, 308.15 K): 0.319
- solubility (mole fraction) (in acetone, 313.15 K): 0.384
- solubility (mole fraction) (in acetone, 318.15 K): 0.458
- solubility (mole fraction) (in acetonitrile, 278.15 K): 0.0717
- solubility (mole fraction) (in acetonitrile, 283.15 K): 0.0892
- solubility (mole fraction) (in acetonitrile, 288.15 K): 0.116
- solubility (mole fraction) (in acetonitrile, 293.15 K): 0.147
- solubility (mole fraction) (in acetonitrile, 298.15 K): 0.185
- solubility (mole fraction) (in acetonitrile, 303.15 K): 0.233
- solubility (mole fraction) (in acetonitrile, 308.15 K): 0.292
- solubility (mole fraction) (in acetonitrile, 313.15 K): 0.367
- solubility (mole fraction) (in acetonitrile, 318.15 K): 0.454
- solubility (mole fraction) (in cyclohexane, 283.15 K): 0.00124
- solubility (mole fraction) (in cyclohexane, 288.15 K): 0.00159
- solubility (mole fraction) (in cyclohexane, 293.15 K): 0.00204
- solubility (mole fraction) (in cyclohexane, 298.15 K): 0.0026
- solubility (mole fraction) (in cyclohexane, 303.15 K): 0.00333
- solubility (mole fraction) (in cyclohexane, 308.15 K): 0.0043
- solubility (mole fraction) (in cyclohexane, 313.15 K): 0.0056
- solubility (mole fraction) (in cyclohexane, 318.15 K): 0.00743
- solubility (mole fraction) (in ethanol, 278.15 K): 0.00487
- solubility (mole fraction) (in ethanol, 283.15 K): 0.00619
- solubility (mole fraction) (in ethanol, 288.15 K): 0.00785
- solubility (mole fraction) (in ethanol, 293.15 K): 0.00993
- solubility (mole fraction) (in ethanol, 298.15 K): 0.0125
- solubility (mole fraction) (in ethanol, 303.15 K): 0.0158
- solubility (mole fraction) (in ethanol, 308.15 K): 0.0204
- solubility (mole fraction) (in ethanol, 313.15 K): 0.0262
- solubility (mole fraction) (in ethanol, 318.15 K): 0.0355
- solubility (mole fraction) (in ethyl acetate, 278.15 K): 0.0782
- solubility (mole fraction) (in ethyl acetate, 283.15 K): 0.0906
- solubility (mole fraction) (in ethyl acetate, 288.15 K): 0.109
- solubility (mole fraction) (in ethyl acetate, 293.15 K): 0.132
- solubility (mole fraction) (in ethyl acetate, 298.15 K): 0.159
- solubility (mole fraction) (in ethyl acetate, 303.15 K): 0.191
- solubility (mole fraction) (in ethyl acetate, 308.15 K): 0.23
- solubility (mole fraction) (in ethyl acetate, 313.15 K): 0.277
- solubility (mole fraction) (in ethyl acetate, 318.15 K): 0.341
- solubility (mole fraction) (in isopropanol, 278.15 K): 0.00433
- solubility (mole fraction) (in isopropanol, 283.15 K): 0.00517
- solubility (mole fraction) (in isopropanol, 288.15 K): 0.00635
- solubility (mole fraction) (in isopropanol, 293.15 K): 0.00778
- solubility (mole fraction) (in isopropanol, 298.15 K): 0.00944
- solubility (mole fraction) (in isopropanol, 303.15 K): 0.0117
- solubility (mole fraction) (in isopropanol, 308.15 K): 0.0145
- solubility (mole fraction) (in isopropanol, 313.15 K): 0.018
- solubility (mole fraction) (in isopropanol, 318.15 K): 0.023
- solubility (mole fraction) (in methanol, 278.15 K): 0.00642
- solubility (mole fraction) (in methanol, 283.15 K): 0.00759
- solubility (mole fraction) (in methanol, 288.15 K): 0.00928
- solubility (mole fraction) (in methanol, 293.15 K): 0.0117
- solubility (mole fraction) (in methanol, 298.15 K): 0.0146
- solubility (mole fraction) (in methanol, 303.15 K): 0.0183
- solubility (mole fraction) (in methanol, 308.15 K): 0.0231
- solubility (mole fraction) (in methanol, 313.15 K): 0.0299
- solubility (mole fraction) (in methanol, 318.15 K): 0.0389
- solubility (mole fraction) (in n-propanol, 278.15 K): 0.00388
- solubility (mole fraction) (in n-propanol, 283.15 K): 0.00487
- solubility (mole fraction) (in n-propanol, 288.15 K): 0.00609
- solubility (mole fraction) (in n-propanol, 293.15 K): 0.00763
- solubility (mole fraction) (in n-propanol, 298.15 K): 0.00975
- solubility (mole fraction) (in n-propanol, 303.15 K): 0.0124
- solubility (mole fraction) (in n-propanol, 308.15 K): 0.0157
- solubility (mole fraction) (in n-propanol, 313.15 K): 0.0204
- solubility (mole fraction) (in n-propanol, 318.15 K): 0.0265
- solubility (mole fraction) (in toluene, 278.15 K): 0.0545
- solubility (mole fraction) (in toluene, 283.15 K): 0.0657
- solubility (mole fraction) (in toluene, 288.15 K): 0.082
- solubility (mole fraction) (in toluene, 293.15 K): 0.103
- solubility (mole fraction) (in toluene, 298.15 K): 0.128
- solubility (mole fraction) (in toluene, 303.15 K): 0.161
- solubility (mole fraction) (in toluene, 308.15 K): 0.2
- solubility (mole fraction) (in toluene, 313.15 K): 0.254
- solubility (mole fraction) (in toluene, 318.15 K): 0.328

Structure (SMILES): CC(=O)c1ccc([N+](=O)[O-])cc1
- solubility (mole fraction) (in acetone, 278.15 K): 0.134
- solubility (mole fraction) (in acetone, 283.15 K): 0.158
- solubility (mole fraction) (in acetone, 288.15 K): 0.185
- solubility (mole fraction) (in acetone, 293.15 K): 0.216
- solubility (mole fraction) (in acetone, 298.15 K): 0.25
- solubility (mole fraction) (in acetone, 303.15 K): 0.287
- solubility (mole fraction) (in acetone, 308.15 K): 0.33
- solubility (mole fraction) (in acetone, 313.15 K): 0.376
- solubility (mole fraction) (in acetone, 318.15 K): 0.428
- solubility (mole fraction) (in acetonitrile, 278.15 K): 0.103
- solubility (mole fraction) (in acetonitrile, 283.15 K): 0.123
- solubility (mole fraction) (in acetonitrile, 288.15 K): 0.146
- solubility (mole fraction) (in acetonitrile, 293.15 K): 0.174
- solubility (mole fraction) (in acetonitrile, 298.15 K): 0.206
- solubility (mole fraction) (in acetonitrile, 303.15 K): 0.244
- solubility (mole fraction) (in acetonitrile, 308.15 K): 0.287
- solubility (mole fraction) (in acetonitrile, 313.15 K): 0.336
- solubility (mole fraction) (in acetonitrile, 318.15 K): 0.389
- solubility (mole fraction) (in cyclohexane, 283.15 K): 0.00154
- solubility (mole fraction) (in cyclohexane, 288.15 K): 0.00203
- solubility (mole fraction) (in cyclohexane, 293.15 K): 0.00259
- solubility (mole fraction) (in cyclohexane, 298.15 K): 0.00332
- solubility (mole fraction) (in cyclohexane, 303.15 K): 0.00423
- solubility (mole fraction) (in cyclohexane, 308.15 K): 0.00542
- solubility (mole fraction) (in cyclohexane, 313.15 K): 0.00694
- solubility (mole fraction) (in cyclohexane, 318.15 K): 0.0089
- solubility (mole fraction) (in ethanol, 278.15 K): 0.00667
- solubility (mole fraction) (in ethanol, 283.15 K): 0.00821
- solubility (mole fraction) (in ethanol, 288.15 K): 0.01
- solubility (mole fraction) (in ethanol, 293.15 K): 0.0123
- solubility (mole fraction) (in ethanol, 298.15 K): 0.0155
- solubility (mole fraction) (in ethanol, 303.15 K): 0.019
- solubility (mole fraction) (in ethanol, 308.15 K): 0.0236
- solubility (mole fraction) (in ethanol, 313.15 K): 0.0293
- solubility (mole fraction) (in ethanol, 318.15 K): 0.0365
- solubility (mole fraction) (in ethyl acetate, 278.15 K): 0.101
- solubility (mole fraction) (in ethyl acetate, 283.15 K): 0.117
- solubility (mole fraction) (in ethyl acetate, 288.15 K): 0.137
- solubility (mole fraction) (in ethyl acetate, 293.15 K): 0.161
- solubility (mole fraction) (in ethyl acetate, 298.15 K): 0.188
- solubility (mole fraction) (in ethyl acetate, 303.15 K): 0.22
- solubility (mole fraction) (in ethyl acetate, 308.15 K): 0.257
- solubility (mole fraction) (in ethyl acetate, 313.15 K): 0.3
- solubility (mole fraction) (in ethyl acetate, 318.15 K): 0.345
- solubility (mole fraction) (in isopropanol, 278.15 K): 0.00349
- solubility (mole fraction) (in isopropanol, 283.15 K): 0.00455
- solubility (mole fraction) (in isopropanol, 288.15 K): 0.00577
- solubility (mole fraction) (in isopropanol, 293.15 K): 0.00758
- solubility (mole fraction) (in isopropanol, 298.15 K): 0.00978
- solubility (mole fraction) (in isopropanol, 303.15 K): 0.0128
- solubility (mole fraction) (in isopropanol, 308.15 K): 0.0169
- solubility (mole fraction) (in isopropanol, 313.15 K): 0.0223
- solubility (mole fraction) (in isopropanol, 318.15 K): 0.0296
- solubility (mole fraction) (in methanol, 278.15 K): 0.00839
- solubility (mole fraction) (in methanol, 283.15 K): 0.0102
- solubility (mole fraction) (in methanol, 288.15 K): 0.0125
- solubility (mole fraction) (in methanol, 293.15 K): 0.0155
- solubility (mole fraction) (in methanol, 298.15 K): 0.0187
- solubility (mole fraction) (in methanol, 303.15 K): 0.0231
- solubility (mole fraction) (in methanol, 308.15 K): 0.0283
- solubility (mole fraction) (in methanol, 313.15 K): 0.0343
- solubility (mole fraction) (in methanol, 318.15 K): 0.0421
- solubility (mole fraction) (in n-propanol, 278.15 K): 0.00481
- solubility (mole fraction) (in n-propanol, 283.15 K): 0.00608
- solubility (mole fraction) (in n-propanol, 288.15 K): 0.00762
- solubility (mole fraction) (in n-propanol, 293.15 K): 0.00968
- solubility (mole fraction) (in n-propanol, 298.15 K): 0.0121
- solubility (mole fraction) (in n-propanol, 303.15 K): 0.0154
- solubility (mole fraction) (in n-propanol, 308.15 K): 0.0194
- solubility (mole fraction) (in n-propanol, 313.15 K): 0.0246
- solubility (mole fraction) (in n-propanol, 318.15 K): 0.0313
- solubility (mole fraction) (in toluene, 278.15 K): 0.0674
- solubility (mole fraction) (in toluene, 283.15 K): 0.0806
- solubility (mole fraction) (in toluene, 288.15 K): 0.0959
- solubility (mole fraction) (in toluene, 293.15 K): 0.114
- solubility (mole fraction) (in toluene, 298.15 K): 0.137
- solubility (mole fraction) (in toluene, 303.15 K): 0.164
- solubility (mole fraction) (in toluene, 308.15 K): 0.195
- solubility (mole fraction) (in toluene, 313.15 K): 0.232
- solubility (mole fraction) (in toluene, 318.15 K): 0.275
